From PMC7557804, “The Anti-Microbial Peptide (Lin-SB056-1)2-K Reduces Pro-Inflammatory Cytokine Release through Interaction with Pseudomonas aeruginosa Lipopolysaccharide” (Antibiotics, 2020)

Assays:
A549 cells [1] = assay: LPS-induced cytokine production by A549 cells (bead-based multiplex immunoassay); format: cell-based, Human; conditions: 4 h, 37 °C
Protocol: Human non-small-cell lung adenocarcinoma A549 cells (ATCC CCL-185; LGC Standards, Milan, Italy) and human monocytic THP-1 cells (ATCC TIB-202; LGC Standards) were cultured in tissue culture flasks in Dulbecco’s modified essential medium (DMEM) (Euroclone, Milan, Italy) and RPMI 1640 medium (Euroclone), respectively. Both media were supplemented with 2 mM L-glutamine (Euroclone) and 10% heat-inactivated fetal bovine serum (FBS; Euroclone). Confluent monolayers were detached from the culture flask with 0.25% trypsin/1 mM EDTA solution (Euroclone), suspended in complete culture medium and seeded into flat-bottom 96-well plates at a final density of 1 × 10^4 cells/well (A549) and 2 × 10^4 cells/well (THP-1). A549 cells were cultured for 24 h at 37 °C, 5% CO2 in order to allow adhesion and formation of semi-confluent monolayers. THP-1 cells were cultured for 3 days (37 °C, 5% CO2) in the presence of 100 nM TPA (Sigma-Aldrich, St. Louis, MO, USA) to induce their differentiation into macrophage-like cells.
(§1) The anti-inflammatory potential of lin-SB056-1 and (lin-SB056-1)2-K was assessed by evaluating their ability to reduce LPS-induced production of pro-inflammatory cytokines by A549 cells and THP-1 macrophages. In order to ensure cytokine production, cell monolayers were stimulated with LPS from P. aeruginosa serotype 10 (purified by phenol extraction; Sigma-Aldrich, Milano, Italy) at a final concentration of 10 ng/mL (THP-1) and 800 ng/mL (A549). LPS concentrations used in the experiments were chosen based on preliminary assays aimed at identifying the minimum dose of the molecule able to stimulate cytokine production after 4 h of exposure. In order to assess the inhibitory activity of peptides on cytokine production, cell monolayers were incubated in complete culture medium in the presence of LPS and different concentrations of lin-SB056-1 and (lin-SB056-1)2-K (4.8 to 19.25 μM) for 4 h (37 °C, 5% CO2). Cells incubated in the presence of LPS alone were used as positive (cytokine production) control. Following incubation, cell culture supernatants were collected, filter sterilized (0.22 µm) and employed for the quantification of cytokines and the assessment of cell viability.
Different pro-inflammatory cytokines (i.e., IL-1β, IL-6, IL-8 and TNF-α) were quantified in cell culture supernatants through a bead-based multiplex immunoassay (LEGENDplex multi-analyte flow assay kit; BioLegend, San Diego, CA, USA) following manufacturer’s instructions. Briefly, 25 μL of cytokine standard or cell supernatant were incubated with 25 μL of anti-cytokine conjugated beads into V-bottom 96-well plates for 2 h. Following incubation, the plates were washed and subsequently incubated with the detection antibody (25 μL/well) for 1 h. A volume of 25 μL of streptavidin-phycoerythrin was added to each well, and the plates were incubated for another 30 min in the dark. Following consecutive washing steps, the beads were resuspended in the LEGENDplex wash buffer and the samples were analyzed by flow cytometry (BD Accuri C6 flow cytometer; BD Biosciences, Mountain View, CA, United States). Data were acquired with the BD Accuri C6 software (BD Biosciences) (300 events per analyte) and analyzed with the LEGENDplex software (BioLegend). Minimum detectable concentration (MDC+2STDEV) for the tested cytokines were as follows: IL-1β, 0.65 + 0.47 pg/mL; IL-6, 0.97 + 1.46 pg/mL; IL-8, 1.90 + 0.65 pg/mL; TNF-α, 0.88 + 0.27 pg/mL.

A549 cells [2] = assay: Cytokine production by A549 cells stimulated with whole P. aeruginosa PAO1; format: cell-based, Human; conditions: 4 h, 37 °C, 5% CO2
Protocol: The reference strain P. aeruginosa PAO1 (ATCC 15692) was used in this study. For the preparation of stock cultures, bacteria were grown in Tryptone Soy Broth (TSB; Thermo Fisher Scientific, Waltham, MA, USA) until mid-exponential phase, then aliquoted and stored at −80 °C. For the preparation of the inoculum, a volume of 50 μL of the frozen culture was inoculated in 5 mL of TSB, and subsequently incubated for 18 h at 37 °C. […]
In some experiments, the ability of (lin-SB056-1)2-K to inhibit cytokine production by A549 cells stimulated with whole P. aeruginosa (PAO1 strain) was assessed. […]
(§2) Different pro-inflammatory cytokines (i.e., IL-1β, IL-6, IL-8 and TNF-α) were quantified in cell culture supernatants through a bead-based multiplex immunoassay (LEGENDplex multi-analyte flow assay kit; BioLegend, San Diego, CA, USA) following manufacturer’s instructions. […] Following consecutive washing steps, the beads were resuspended in the LEGENDplex wash buffer and the samples were analyzed by flow cytometry (BD Accuri C6 flow cytometer; BD Biosciences, Mountain View, CA, United States). Data were acquired with the BD Accuri C6 software (BD Biosciences) (300 events per analyte) and analyzed with the LEGENDplex software (BioLegend). […]

[3] = test system: reference strain and CF lung isolates of P. aeruginosa; conditions: cell culture medium; cited from earlier work
Description: (§3) In our previous work, we explored different strategies to enhance the anti-bacterial and anti-biofilm activity of the semi-synthetic peptide lin-SB056-1 [12] in physiologically relevant, host-mimicking conditions that are known to interfere with the stability and efficacy of AMPs.

P. aeruginosa [4] = conditions: 3-D lung epithelial cell model, cited from earlier work
Description: as §3

P. aeruginosa [5] = conditions: in vivo-like models of lung infection; cited from earlier work
Description: The global issue of anti-microbial resistance coupled with the lack of new treatments for bacterial infections has stimulated interest in the use of AMPs for therapeutic purposes. Due to their unique mechanism(s) of action and wide spectrum of biological activities, AMPs are emerging as a promising alternative to conventional anti-microbial agents for the management of antibiotic-resistant and biofilm-associated infections. Although mainly intended for topical use due to potential toxicity and reduced stability under physiological conditions, many different peptides with anti-micro ...

[6] = test system: lung epithelial- and macrophage-cell lines stimulated with P. aeruginosa LPS; assay: LPS-induced production of pro-inflammatory cytokines, overall result; format: cell-based, Human
Protocol: as §1, with “In order to assess the inhibitory activity of peptides on cytokine production, cell monolayers were incubated in complete culture medium in the presence of LPS and different concentrations of lin-SB056-1 and (lin-SB056-1)2-K (4.8 to 19.25 μM) for 4 h (37 °C, 5% CO2). Cells incubated in the presence of LPS alone were used as positive (cytokine production) control.” left out
as §2, with “States).” for “States). Data were acquired with the BD Accuri C6 software (BD Biosciences) (300 events per analyte) and analyzed with the LEGENDplex software (BioLegend).”

[7] = 9.6 μM peptide, P. aeruginosa serotype 10 LPS 800 ng/mL, 5% CO2, complete culture medium, mean of at least three independent experiments, vs peptide-untreated control

Substance: [KWKIRVRLSA]2-K [(lin-SB056-1)2-K, dendrimeric derivative of lin-SB056-1]
- reduction of IL-6 levels (A549 cells [1]; [7]): ≤ 80%
- reduction of IL-8 levels (A549 cells [1]; [7]): ≤ 80%
- effect on IL-6 release (A549 cells [1]; LPS 800 ng/mL, peptide 4.8 to 19.25 μM): significant reduction
- effect on IL-8 release (A549 cells [1]; LPS 800 ng/mL, peptide 4.8 to 19.25 μM, lin-SB056-1 decrease at 19.25 μM (highest tested)): significant reduction
- reduction in IL-6 levels (A549 cells [2]; 9.6 μM peptide, PAO1 fixed with 4% paraformaldehyde, 5 × 10^6 CFU/well, statistically significant, mean of at least three independent experiments): up to 70%
- effect on IL-8 release (A549 cells [2]; 9.6 and 19.25 μM peptide, fixed PAO1 5 × 10^6 CFU/well): no evident effect
- MIC (Minimal Inhibitory Concentration) [3]: 2.4 to 9.6 µM
- fold lower MIC compared to lin-SB056-1 [3]: 4 to 16 fold
- reduction in the number of biofilm-forming bacteria (P. aeruginosa [4]; 19.25 µM): ≤ 99.9%
- anti-biofilm activity (P. aeruginosa [4]; compared to lin-SB056-1 and lin-SB056-1/EDTA): stronger anti-biofilm activity compared to both lin-SB056-1 and the lin-SB056-1/EDTA combination
- anti-bacterial and anti-biofilm activity in in vivo-like models (P. aeruginosa [5]): remarkable anti-bacterial and anti-biofilm activity
- anti-inflammatory effect compared to monomeric counterpart ([6]; LPS and/or P. aeruginosa stimulation): superior anti-inflammatory effect compared to its monomeric counterpart
- decrease in LPS-induced production of pro-inflammatory cytokines (IL-1β, IL-6 and IL-8) ([6]; lung epithelial- and macrophage-cell lines, P. aeruginosa LPS): up to 80%
